Where a name gives a salt, the structure may show the parent alone. Read-outs that look alike come from different tables or passages of the source.
Columns and labels:
[1] = tested on: ALPK1-dependent NFκB reporter gene activation in HEK293 cells stably expressing an NF-kB reporter (G9 cells); assay: NFκB gene reporter alkaline phosphatase assay; type: cell-based; conditions: read-out: NFkB assay IC50
From the text: In embodiments, a compound of Formula I, or a subembodiment described herein, is an inhibitor of ALPK1 as measured, for example, in an in vitro kinase assay, or an assay designed to measure the activation of downstream targets of ALPK1 pathway activation, for example NFkB transcriptional activation and the secretion of proinflammatory cytokines and chemokines, such as IL-8, which is also referred to as CXCL-8. In general, the computer program XL fit was used for data analysis, including non-linear regression analysis. The half maximal inhibitory concentration (IC50) was used as the measure of a compound's effectiveness in the assays. IC50 values were determined using the following logistic equation Y=min+(max−min)/(1+(X/IC50^−hillslpoe), where Y is the value at the compound concentration, X. The concentration response curve fitting was conducted using GraphPad Prism version 6.00 software.
An alkaline phosphatase reporter assay system was used to measure inhibition of ALPK1-dependent NFκB reporter gene activation. Briefly, HEK293 cells stably expressing an NF-kB reporter (referred to herein as “G9 cells”) were maintained in DMEM as described above. For the assay, cells were seeded into 96-well plates at a density of 10,000 cells/well in Freestyle™ 293 Expression Medium (ThermoFisher), and allowed to attach overnight. Cells were pretreated with serially diluted compounds for 30 min and then stimulated with D-glycero-D-manno-6-fluoro-heptose-1β-S-ADP. […] NFkB gene activation was detected using the chromogenic substrate, para-nitrophenyl phosphate (pNPP) according to the manufacturer's protocols (pNPP Phosphatase Assay, Beyotime Biotechnology).

ALPK1 = ALPK1 (Homo sapiens (Human), UniProt Q96QP1); assay: ALPK1 in vitro kinase assay (HTRF of TIFA phosphorylation); type: biochemical
ALPK1, sequence (Q96QP1 whole entry): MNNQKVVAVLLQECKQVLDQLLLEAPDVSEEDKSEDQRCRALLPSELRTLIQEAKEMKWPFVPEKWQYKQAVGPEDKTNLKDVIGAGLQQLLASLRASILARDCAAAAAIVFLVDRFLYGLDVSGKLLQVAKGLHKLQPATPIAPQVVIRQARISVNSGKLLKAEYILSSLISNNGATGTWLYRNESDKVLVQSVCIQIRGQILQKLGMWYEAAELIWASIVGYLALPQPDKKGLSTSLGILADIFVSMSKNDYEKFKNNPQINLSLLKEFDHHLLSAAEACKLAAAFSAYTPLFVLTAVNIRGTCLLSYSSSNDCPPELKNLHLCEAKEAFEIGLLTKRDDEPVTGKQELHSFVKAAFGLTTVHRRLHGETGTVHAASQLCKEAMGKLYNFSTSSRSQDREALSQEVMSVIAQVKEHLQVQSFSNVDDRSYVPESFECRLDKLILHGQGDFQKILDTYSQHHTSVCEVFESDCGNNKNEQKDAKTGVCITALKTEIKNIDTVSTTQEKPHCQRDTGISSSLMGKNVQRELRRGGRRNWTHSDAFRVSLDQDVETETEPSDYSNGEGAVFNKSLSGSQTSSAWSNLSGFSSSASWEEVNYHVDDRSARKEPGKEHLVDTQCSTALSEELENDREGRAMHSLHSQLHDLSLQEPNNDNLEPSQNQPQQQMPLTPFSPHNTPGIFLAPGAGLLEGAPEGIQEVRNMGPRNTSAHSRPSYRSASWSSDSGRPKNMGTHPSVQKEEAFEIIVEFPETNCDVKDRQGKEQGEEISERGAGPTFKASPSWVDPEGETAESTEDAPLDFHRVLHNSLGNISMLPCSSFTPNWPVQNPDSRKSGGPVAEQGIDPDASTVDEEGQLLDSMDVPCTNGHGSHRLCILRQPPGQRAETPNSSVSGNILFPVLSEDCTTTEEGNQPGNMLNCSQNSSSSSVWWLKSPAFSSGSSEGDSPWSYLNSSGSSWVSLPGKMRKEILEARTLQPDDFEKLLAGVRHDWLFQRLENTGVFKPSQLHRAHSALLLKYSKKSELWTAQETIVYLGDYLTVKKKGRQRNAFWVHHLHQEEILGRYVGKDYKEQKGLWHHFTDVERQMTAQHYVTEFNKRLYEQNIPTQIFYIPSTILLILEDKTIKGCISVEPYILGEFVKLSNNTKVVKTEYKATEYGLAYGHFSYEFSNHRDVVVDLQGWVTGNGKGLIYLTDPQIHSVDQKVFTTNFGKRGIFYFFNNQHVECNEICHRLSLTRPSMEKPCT

| SMILES | IC50 ([1]; Homo sapiens, HEK293) [nM] | IC50 (ALPK1) [nM] | IC50 [1] [nM] |
| --- | --- | --- | --- |
| C#CC(C)(c1ccc(Br)cc1)c1csc(NC(N)=O)n1 (stereo in doubt) [Example A163, (S)-1-(4-(2-(4-bromophenyl)but-3-yn-2-yl)thiazol-2-yl)urea] | 350 | 4 | – |
| C#CC(C)(c1ccc(Br)cc1)c1csc(NC(N)=O)n1 (stereo in doubt) [Example A164, (R)-1-(4-(2-(4-bromophenyl)but-3-yn-2-yl)thiazol-2-yl)urea] | 590 | 17 | – |
| C#C[C@](C)(c1ccc(Br)cc1)c1csc(NC(=O)NCC(O)CO)n1 (stereo in doubt) [Example A277, 1-(4-(2-(4-bromophenyl)but-3-yn-2-yl)thiazol-2-yl)-3-(2,3-dihydroxypropyl)urea] | 1230 | 2670 | – |
| C#C[C@@](C)(c1ccc(Br)cc1)c1csc(NC(=O)NCC(O)CO)n1 (stereo in doubt) [Example A278, 1-(4-(2-(4-bromophenyl)but-3-yn-2-yl)thiazol-2-yl)-3-(2,3-dihydroxypropyl)urea] | 520 | 624 | – |
| C#C[C@](C)(c1ccc(Cl)cc1)c1csc(NC(=O)N2CCc3cc(N4CCNCC4)ccc3C2)n1 (stereo in doubt) [Example A280, N-(4-(2-(4-chlorophenyl)but-3-yn-2-yl)thiazol-2-yl)-6-(piperazin-1-yl)-3,4-dihydroisoquinoline-2(1H)-carboxamide] | 2180 | – | – |
| C#C[C@](C)(c1ccc(F)cc1)c1csc(NC(=O)NCCO)n1 (stereo in doubt) [Example A282, 1-(4-(2-(4-fluorophenyl)but-3-yn-2-yl)thiazol-2-yl)-3-(2-hydroxyethyl)urea] | 7720 | 2150 | – |
| C#C[C@](C)(c1ccc(Cl)cc1)c1csc(NC(=O)NCC2(O)CNC2)n1 (stereo in doubt) [Example A286, 1-(4-(2-(4-chlorophenyl)but-3-yn-2-yl)thiazol-2-yl)-3-((3-hydroxyazetidin-3-yl)methyl)urea] | 15400 | 495 | – |
| C#C[C@@](C)(c1ccc(Cl)cc1)c1csc(NC(=O)NCC2(O)CNC2)n1 (stereo in doubt) [Example A287, 1-(4-(2-(4-chlorophenyl)but-3-yn-2-yl)thiazol-2-yl)-3-((3-hydroxyazetidin-3-yl)methyl)urea] | 4400 | 130 | – |
| C#C[C@](C)(c1ccc(Cl)cc1)c1csc(NC(=O)N2CC(CN3CCNCC3)C2)n1 (stereo in doubt) [Example A291, N-(4-(2-(4-chlorophenyl)but-3-yn-2-yl)thiazol-2-yl)-3-(piperazin-1-ylmethyl)azetidine-1-carboxamide] | 1650 | 109 | – |
| C#C[C@](C)(c1ccc(Cl)cc1)c1csc(NC(=O)NC(C)(C)CO)n1 (stereo in doubt) [Example A293, 1-(4-(2-(4-chlorophenyl)but-3-yn-2-yl)thiazol-2-yl)-3-(1-hydroxy-2-methylpropan-2-yl)urea] | 8110 | 9360 | – |
| C#C[C@@](C)(c1ccc(Cl)cc1)c1csc(NC(=O)NC(C)(C)CO)n1 (stereo in doubt) [Example A294, 1-(4-(2-(4-chlorophenyl)but-3-yn-2-yl)thiazol-2-yl)-3-(1-hydroxy-2-methylpropan-2-yl)urea] | 3040 | 285 | – |
| C#C[C@](C)(c1ccc(Cl)cc1)c1csc(NC(=O)NC(CO)CO)n1 (stereo in doubt) [Example A297, 1-(4-(2-(4-chlorophenyl)but-3-yn-2-yl)thiazol-2-yl)-3-(1,3-dihydroxypropan-2-yl)urea] | 4390 | 935 | – |
| C#C[C@@](C)(c1ccc(Cl)cc1)c1csc(NC(=O)NC(CO)CO)n1 (stereo in doubt) [Example A298, 1-(4-(2-(4-chlorophenyl)but-3-yn-2-yl)thiazol-2-yl)-3-(1,3-dihydroxypropan-2-yl)urea] | 1150 | 246 | – |
| C#C[C@](C)(c1ccc(Br)cc1)c1csc(NC(=O)NCC(C)(C)O)n1 (stereo in doubt) [Example A305, 1-[4-[1-(4-bromophenyl)-1-methyl-prop-2-ynyl]thiazol-2-yl]-3-(2-hydroxy-2-methyl-propyl)urea] | 2690 | 167 | – |
| C#C[C@@](C)(c1ccc(Br)cc1)c1csc(NC(=O)NCC(C)(C)O)n1 (stereo in doubt) [Example A306, 1-[4-[1-(4-bromophenyl)-1-methyl-prop-2-ynyl]thiazol-2-yl]-3-(2-hydroxy-2-methyl-propyl)urea] | 830 | 56 | – |
| C#C[C@](C)(c1ccc(Cl)cc1)c1csc(NC(=O)NCC(C)O)n1 (stereo in doubt) [Example A318, 1-(4-(2-(4-chlorophenyl)but-3-yn-2-yl)thiazol-2-yl)-3-(2-hydroxypropyl)urea] | – | – | 2240 |

| SMILES | IC50 ([1]; Homo sapiens, HEK293) [nM] | IC50 (ALPK1) [nM] | IC50 [1] [nM] |
| --- | --- | --- | --- |
| [2H]C([2H])(O)CNC(=O)Nc1nc([C@@](C)(C#C)c2ccc(Cl)cc2)cs1 (stereo in doubt) [Example A321, 1-[4-[1-(4-chlorophenyl)-1-methyl-prop-2-ynyl]thiazol-2-yl]-3-(2,2-dideuterio-2-hydroxy-ethyl)urea] | 300 | 28 | – |
| COc1ccc(C(C)(C)c2csc(NC(=O)NC(C)c3ccc(N4CCNCC4)nc3)n2)cc1 (centres unmarked) [Example A001, 1-(4-(2-(4-methoxyphenyl)propan-2-yl)thiazol-2-yl)-3-(1-(6-(piperazin-1-yl)pyridin-3-yl)ethyl)urea] | 670 | 58 | – |
| CC(C)(c1ccc(Br)cc1)c1csc(NC(=O)NCc2cccc(N3CCNCC3)c2)n1 [Example A005, 1-(4-(2-(4-bromophenyl)propan-2-yl)thiazol-2-yl)-3-(3-(piperazin-1-yl)benzyl)urea] | 1150 | – | – |
| CC(C)(c1ccc(Br)cc1)c1csc(NC(=O)NCc2ccc(N3CCNCC3)c(Br)c2)n1 [Example A097, 1-(3-bromo-4-(piperazin-1-yl)benzyl)-3-(4-(2-(4-bromophenyl)propan-2-yl)thiazol-2-yl)urea] | 1420 | – | – |
| COc1ccc(C(C)(C)c2csc(NC(=O)NCCCCNc3ccccc3)n2)cc1 [Example A147, 1-(4-(2-(4-methoxyphenyl)propan-2-yl)thiazol-2-yl)-3-(4-(phenylamino)butyl)urea] | 1910 | – | – |
| COc1ccc(C(C)(C)c2csc(NC(=O)NCc3cc(F)c(C4CCNCC4)c(F)c3)n2)cc1 [Example A151, 1-(3,5-difluoro-4-(piperidin-4-yl)benzyl)-3-(4-(2-(4-methoxyphenyl)propan-2-yl)thiazol-2-yl)urea hydrochloride] | 950 | – | – |
| CC(C)(c1ccc(I)cc1)c1csc(NC(=O)NCc2cnc(N3CCNCC3)nc2)n1 [Example A178, 1-(4-(2-(4-iodophenyl)propan-2-yl)thiazol-2-yl)-3-((2-(piperazin-1-yl)pyrimidin-5-yl)methyl)urea] | 920 | – | – |
| CC(C)(c1ccc(Br)cc1)c1csc(NC(=O)NCc2ccc(C3CCNCC3)c(F)c2)n1 [Example A222, 1-(4-(2-(4-bromophenyl)propan-2-yl)thiazol-2-yl)-3-(3-fluoro-4-(piperidin-4-yl)benzyl)urea] | 930 | – | – |
| C#CC(C)(c1ccc(OC)cc1)c1csc(NC(=O)NC(C)c2ccc(N3CCNCC3)cc2)n1 (centres unmarked) [Example A234, 1-(4-(2-(4-methoxyphenyl)but-3-yn-2-yl)thiazol-2-yl)-3-(1-(4-(piperazin-1-yl)phenyl)ethyl)urea] | 2670 | – | – |
| COc1ccc(C(C)(CO)c2csc(NC(=O)NC(C)c3ccc(N4CCNCC4)cc3)n2)cc1 (centres unmarked) [Example A235, 1-(4-(1-hydroxy-2-(4-methoxyphenyl)propan-2-yl)thiazol-2-yl)-3-(1-(4-(piperazin-1-yl)phenyl)ethyl)urea] | 27000 | – | – |
| C#CC(C)(c1ccc(Br)cc1)c1csc(NC(=O)NCCN2CCNCC2)n1 (centres unmarked) [Example A239, 1-(4-(2-(4-bromophenyl)but-3-yn-2-yl)thiazol-2-yl)-3-(2-(piperazin-1-yl)ethyl)urea] | 850 | – | – |
| C#C[C@@](C)(c1ccc(Cl)cc1)c1nc(NC(=O)NCCO)sc1Cl [Example A247, (S)-1-(5-chloro-4-(2-(4-chlorophenyl)but-3-yn-2-yl)thiazol-2-yl)-3-(2-hydroxyethyl)urea] | 1850 | – | – |
| C#C[C@](C)(c1ccc(Cl)cc1)c1nc(NC(=O)NCCO)sc1Cl [Example A248, (R)-1-(5-chloro-4-(2-(4-chlorophenyl)but-3-yn-2-yl)thiazol-2-yl)-3-(2-hydroxyethyl)urea] | 2730 | – | – |
| C#C[C@@](C)(c1ccc(Cl)cc1)c1csc(NC(=O)N2CCc3cc(N4CCNCC4)ccc3C2)n1 [Example A260, (S)-N-(4-(2-(4-chlorophenyl)but-3-yn-2-yl)thiazol-2-yl)-6-(piperazin-1-yl)-3,4-dihydroisoquinoline-2(1H)-carboxamide] | 1080 | – | – |
| C#C[C@@](C)(c1ccc(Cl)cc1)c1csc(NC(=O)N2CCc3cc(N4CCNCC4)ccc3C2)n1 [Example A281, N-(4-(2-(4-chlorophenyl)but-3-yn-2-yl)thiazol-2-yl)-6-(piperazin-1-l)-3,4-dihydroisoquinoline-2(1H)-carboxamide] | – | – | 860 |

Source: patent US20240109853A1 (Shanghai Yao Yuan Biotechnology Co., Ltd., priority 2020, published 2024)
